Laboratory results from BindingDB's records for doi:10.1016/j.bmcl.2009.04.039 (Johnson & Johnson Pharmaceutical Research & Development, 2009).

Target: T1, Signal transducer and activator of transcription 5A (Homo sapiens, UniProt P42229)
T1 sequence (P42229 whole entry): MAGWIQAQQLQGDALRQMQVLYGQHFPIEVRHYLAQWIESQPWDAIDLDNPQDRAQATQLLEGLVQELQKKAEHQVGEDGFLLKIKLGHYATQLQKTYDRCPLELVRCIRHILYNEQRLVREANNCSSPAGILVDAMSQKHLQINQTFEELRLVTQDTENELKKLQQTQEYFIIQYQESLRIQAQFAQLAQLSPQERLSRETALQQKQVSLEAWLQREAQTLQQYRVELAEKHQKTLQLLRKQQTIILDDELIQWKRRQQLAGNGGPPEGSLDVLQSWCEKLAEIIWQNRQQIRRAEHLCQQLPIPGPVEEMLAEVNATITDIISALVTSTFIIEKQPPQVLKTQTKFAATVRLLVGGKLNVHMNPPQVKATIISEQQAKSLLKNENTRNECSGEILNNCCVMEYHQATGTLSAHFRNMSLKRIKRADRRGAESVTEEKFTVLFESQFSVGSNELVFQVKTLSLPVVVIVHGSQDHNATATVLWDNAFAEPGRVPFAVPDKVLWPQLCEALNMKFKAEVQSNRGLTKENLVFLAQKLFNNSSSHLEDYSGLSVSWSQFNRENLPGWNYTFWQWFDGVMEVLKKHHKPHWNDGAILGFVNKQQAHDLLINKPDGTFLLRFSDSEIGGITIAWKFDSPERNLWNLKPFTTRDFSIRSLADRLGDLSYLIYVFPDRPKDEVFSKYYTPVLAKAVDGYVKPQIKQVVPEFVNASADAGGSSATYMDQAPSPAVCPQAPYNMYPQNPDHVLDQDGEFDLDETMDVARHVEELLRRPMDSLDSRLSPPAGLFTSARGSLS
Assay: Inhibition of STAT5 phosphorylation in IL2-stimulated healthy human T cells by Western blotting

Compound `O=C1NCc2c1c1c3ccccc3n3c1c1c2c2ccccc2n1C[C@@H](O)[C@@H](O)C3` [12,13-(2,3-Cis-dihyroxy-1,4-butyl)-6,7,12,13-tetrahydro-5-oxo-5H-indolo[2,3-a]pyrrolo[3,4-c]carbazole] has an IC50 of 0.689 µM.
